Read-outs that look alike come from different tables or passages of the source.
Key:
[1] = Stability in human liver microsomes; type: in vitro ADME; details: 0.5 mg/mL pooled male microsomes, read-out: Intrinsic Clearance (Cl int) Liver Microsomes
Procedure: Memantine (1 μM) was incubated in 0.5 mg/mL of pooled male rat, mouse, or human liver microsomes (obtained commercially), in 0.1 M phosphate buffer at 37 °C. After pre-warming the mixture for 5 min, reactions were initiated by the addition of NADPH (1 mM). Aliquots (80 μL) were taken at 0, 5, 10, 20 and 40 min, and the reaction immediately terminated by adding into 80 μL of acetonitrile containing an analytical internal standard (IS). Samples were centrifuged and the supernatant fractions analyzed by LC-MS/MS with multiple reaction monitoring (MRM). All incubations were performed in duplicate. Testosterone was used as the positive control. The MRM area response ratio of the analyte over IS for Time=0(control) was set to 100%, the relative decrease in MRM area ratio intensity over time against that of the control (percent parent decrease) was used to determine the half-life (t1/2) of memantine in the incubation. Half-life values were calculated from the relationship:
t1/2 (min) = -0.693/λ, where λ is the slope of the Ln concentration vs time curve. The intrinsic clearance (Clint) was calculated as:
Clint = (0.693 x incubation volume (μL))/(t½ (min) x mg of microsomal protein)

[2] = Metabolite identification in rat liver microsomes; type: in vitro ADME; details: 10 µM, 1 mg/mL rat liver microsomal protein, 60 min
Procedure: Metabolites of memantine were characterized following incubation in pooled rat liver microsomes. Incubation conditions were as described above (Section 4.1), except that for metabolite identification the memantine concentration was 10 µM, 1 mg/mL of liver microsomal protein was used, and the metabolites were identified following a 60 min incubation period. Control incubations (T=0 min) were used as reference, and testosterone incubations were used as a positive control.
Full scan mass spectra were acquired by TOF-MS as accurate mass. The instruments were controlled and data acquired by Waters MassLynx™ version 4.1 (SCN 714) software. The TOF-MS spectra were interrogated and metabolite reports generated by Waters MetaboLynx™ XS software.

[3] = test system: YAC128 mice; details: cited from earlier work
[4] = Human pharmacokinetics (literature); type: in vivo
[5] = molecular target: T1, OATP2B1 (Homo sapiens, UniProt O94956); assay: Indirect uptake transporter assay, OATP2B1; type: in vitro ADME
T1 construct: expressed in transfected cells; host or cells: MDCKII cells
T1 sequence (O94956 1-709): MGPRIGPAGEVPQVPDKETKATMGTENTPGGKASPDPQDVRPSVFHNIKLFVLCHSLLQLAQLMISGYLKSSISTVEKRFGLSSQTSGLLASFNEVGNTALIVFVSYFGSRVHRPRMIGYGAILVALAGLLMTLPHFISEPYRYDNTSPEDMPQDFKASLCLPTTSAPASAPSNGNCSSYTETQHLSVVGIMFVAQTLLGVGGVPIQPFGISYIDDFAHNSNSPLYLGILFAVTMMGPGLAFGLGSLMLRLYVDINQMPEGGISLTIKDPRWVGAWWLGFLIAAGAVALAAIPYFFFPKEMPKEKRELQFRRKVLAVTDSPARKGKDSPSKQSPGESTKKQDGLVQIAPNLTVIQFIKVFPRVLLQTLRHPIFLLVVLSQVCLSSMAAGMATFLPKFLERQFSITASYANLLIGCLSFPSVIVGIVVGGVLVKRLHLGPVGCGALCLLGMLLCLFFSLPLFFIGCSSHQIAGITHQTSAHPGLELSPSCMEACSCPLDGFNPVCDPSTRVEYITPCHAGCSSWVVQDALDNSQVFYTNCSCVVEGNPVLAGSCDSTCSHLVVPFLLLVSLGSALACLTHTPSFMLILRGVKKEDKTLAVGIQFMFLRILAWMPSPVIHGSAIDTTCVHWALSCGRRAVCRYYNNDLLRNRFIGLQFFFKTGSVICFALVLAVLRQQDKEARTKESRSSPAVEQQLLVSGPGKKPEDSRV
Excerpt: To determine whether memantine is an inhibitor of the human OATP2B1 (OATP-B), OCT1, OCT2, OAT3, PEPT1, PEPT2 uptake transporters. The standard uptake transporter assay is an indirect, inhibitory-type screening assay, performed with cold test article, which in this case was memantine. It provides information on any interaction (substrate or inhibitor) between selected uptake transporters and memantine that would affect the transport of the reporter compound. […] A radiolabeled reporter substrate is transported into the cells transfected with the selected human uptake transporter, and the inhibitory effect of memantine on the transport of this reporter substrate is measured. Values are presented on a relative scale; 100% defined as transport in the presence of the solvent and without memantine (no inhibition), and 0% defined as transport detected without transporter activity. IC50 is defined as the concentration required to inhibit the transport of the reporter substrate by 50%. […]
After the experiment cells were rinsed with 2 x 100µl of Krebs-Henseleit buffer and lysed with 50 µl of 0.1M NaOH. ^3H-estrone-3-sulfate, ^14C-TEA, ^14C-metformin and ^3H-Gly-Sar transport was determined by total radioactivity by transferring an aliquot (35µl) from each well to a vial containing liquid scintillant for analysis.

## CC12CC3CC(C)(C1)CC(N)(C3)C2 [memantine]
[1]
  microsomal CLint at 1 μM: < 13.9 µL/min/mg
[2]
  most abundant metabolite (based on uv signal response): product of a single aliphatic hydroxylation
[3]; YAC128 mice, 1 mg/kg in drinking water for 2 months, age 4 months
  CREB phosphorylation deficit: reversed the deficit in CREB phosphorylation
[3]; YAC128 mice, 1 mg/kg in drinking water for 2 months
  rotarod learning task: improvement in a rotarod learning task
[3]; YAC128 mice, high-dose (30 mg/kg)
  motor performance and neuropathology compared to vehicle-treated mice: worsened motor performance and neuropathology
[3]; YAC128 mice, high-dose
  HTT aggregate formation and TCP-1 expression levels: decrease HTT aggregate formation and TCP-1 expression levels
[3]; YAC128 mice, low-dose (not high-dose)
  striatal levels of Rhes protein: decreased striatal levels of Rhes protein
[3]; aged (12 months) YAC128 mice, low-dose
  neuropathology and motor deficits: rescue neuropathology as well as motor deficits
[4]
  Contribution of active transport to clearance: 30-40%
  renal clearance higher than human GFR of 125 mL/min: approximately 30%
  total systemic clearance, times higher than GFR: ~1.4 fold
[4]; listed as Memantine
  total systemic clearance, times higher than GFR: ~ 1.4 fold
[4]; plasma, oral, 10 mg, estimated, read-out: Cl p (converted)
  clearance: 2.67 mL/min/kg
[5]; OATP2B1, probe printed in Table 5: TEA (3.6 μM), methods and text: E3S
  IC50: > 300 µM
[5]; human, probe 3H-estrone-3-sulfate, at 300 µM, read-out: inhibition of OATP2B1-mediated estrone-3-sulfate transport
  inhibition at 300 µM: 67%
